Measurements from ChEMBL document CHEMBL4342450, “Antitumor Activity of Ohmyungsamycin A through the Regulation of the Skp2-p27 Axis and MCM4 in Human Colorectal Cancer Cells” (J Nat Prod, 2020).

Tests used:
MDA-MB-231 = experiment: Antiproliferative activity against human MDA-MB-231 cells after 72 hrs by sulforhodamine B assay; assay type: functional, cell-based; settings: MDA-MB-231, 72 h
MRC5 = experiment: Antiproliferative activity against human MRC5 cells after 72 hrs by sulforhodamine B assay; assay type: cell-based; settings: MRC5, 72 h
HCT-116 = experiment: Antiproliferative activity against human HCT116 cells after 72 hrs by sulforhodamine B assay; assay type: functional, cell-based; settings: HCT-116, 72 h
A549 = experiment: Antiproliferative activity against human A549 cells after 72 hrs by sulforhodamine B assay; assay type: functional, cell-based; settings: A549, 72 h
SK-HEP1 = experiment: Antiproliferative activity against human SKHEP1 cells after 72 hrs by sulforhodamine B assay; assay type: functional, cell-based; settings: SK-HEP1, 72 h
SNU-638 = experiment: Antiproliferative activity against human SNU638 cells after 72 hrs by sulforhodamine B assay; assay type: functional, cell-based; settings: SNU-638, 72 h

COc1cc([C@@H]2c3cc4c(cc3[C@@H](O[C@@H]3O[C@@H]5CO[C@@H](C)O[C@H]5[C@H](O)[C@H]3O)[C@H]3COC(=O)[C@H]23)OCO4)cc(OC)c1O [ETOPOSIDE]
IC50 (MDA-MB-231): 3850 nM | IC50 (MRC5): 11200 nM | IC50 (HCT-116): 520 nM | IC50 (A549): 480 nM | IC50 (SK-HEP1): 780 nM | IC50 (SNU-638): 820 nM
